Experimental data published in PMC4661090 (FEBS letters, 2015).

Tests used:
[1] = biological target: Tsr (thiostrepton resistance methyltransferase) (Streptomyces azureus, UniProt P18644, R165A); assay: biochemical; type: binding
[2] = biological target: Tsr (thiostrepton resistance methyltransferase) (Streptomyces azureus, UniProt P18644, R135A); assay: biochemical; type: binding
[3] = biological target: Tsr (thiostrepton resistance methyltransferase) (Streptomyces azureus, UniProt P18644, N129A); assay: biochemical; type: binding
[4] = biological target: Tsr (thiostrepton resistance methyltransferase) (Streptomyces azureus, UniProt P18644); assay: isothermal titration calorimetry, single-set-of-sites fit; type: binding
[5] = biological target: Tsr (thiostrepton resistance methyltransferase) (Streptomyces azureus, UniProt P18644, N129D); assay: biochemical
[6] = biological target: Tsr (thiostrepton resistance methyltransferase) (Streptomyces azureus, UniProt P18644, R135K); assay: biochemical
[7] = biological target: Tsr (thiostrepton resistance methyltransferase) (Streptomyces azureus, UniProt P18644, R165K); assay: biochemical

Nc1ncnc2c1ncn2[C@@H]1O[C@H](CSCC[C@H](N)C(=O)O)[C@@H](O)[C@H]1O [SAH, S-adenosyl-L-homocysteine]
Kd [1]: 20.5 µM
Kd [2]: 11 µM
Kd [3]: 16.4 µM
Kd [4]: 24.4 µM

C[S+](CC[C@H](N)C(=O)O)C[C@H]1O[C@@H](n2cnc3c(N)ncnc32)[C@H](O)[C@@H]1O (stereo partly drawn) [SAM, S-adenosyl-L-methionine]
Kd [5]: 411 µM
Kd [1]: 189 µM
Kd [6]: 142 µM
Kd [2]: 614 µM
Kd [3]: 493 µM
Kd [4]: 107 µM
Kd [7]: 97.1 µM
